Consider two compounds from PMC9936527, “Tandemly duplicated CYP82Ds catalyze 14-hydroxylation in triptolide biosynthesis and precursor production in Saccharomyces cerevisiae” (Nature Communications, 2023).

Common to all, as to assay type: biochemical, Tripterygium wilfordii
Details in all cases: NADPH with regenerating system, TwPOR3, Tris-HCl pH 7.5, 30 °C, 30 min; 14-hydroxylation

In assay [1] the test system is T1, CYP82D274.
T1 construct: full-length CYP cloned from root cDNA, coexpressed with TwPOR3 (pESC-LEU) in Saccharomyces cerevisiae BY4741; yeast microsomes; with NADPH--cytochrome P450 reductase
Nature of the assay: yeast microsomes, product […] by GC-MS, Michaelis-Menten fit.

Assay [2] deals with T1, CYP82D274. Nature of the assay: yeast microsomes, product […] by LC-TQ-MS/MS, Michaelis-Menten fit.
Another assay concerns T2, CYP82D263.
T2 construct: full-length CYP cloned from root cDNA, coexpressed with TwPOR3 (pESC-LEU) in Saccharomyces cerevisiae BY4741; yeast microsomes; with NADPH--cytochrome P450 reductase
The assay is described as above.

Turning to `CC(C)C1=CCC2=C(CC[C@H]3C(C)(C)CCC[C@]23C)C1` [compound 5, miltiradiene], the Km in the assay with CYP82D274 [1] is 47.3 ± 13 µM.

On to `CC(C)c1ccc2c(c1)CC[C@H]1[C@](C)(C(=O)O)CCC[C@]21C` [compound 7, dehydroabietic acid], for which the Km in the assay with CYP82D274 [2] was 0.99 ± 0.17 µM; in the assay on CYP82D263 it was 8.42 ± 1.89 µM.

The term Km denotes the substrate concentration at which the rate is half of its maximum.
